Data as given in PubChem BioAssay AID330 (DTP/NCI, 2004).
Several values for one entry are separate records, joined by “and”; a condition that tells them apart may be missing. Equal values may be shown once. Inconclusive results and toxic doses are left out.

Test system: P388 leukemia ip, CD2F1 mice, survival T/C
Test: NCI In Vivo Anticancer Drug Screen. Data for tumor model P388 Leukemia (intraperitoneal) in CD2F1 (CDF1) mice
Conditions: endpoint: median survival time, higher = longer survival
Method in brief: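 Mice carrying the transplanted tumor received test compound or vehicle. Survival was recorded in each group, and the value is the treated-group measurement divided by that of the vehicle-treated control group.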

[1] = dose: 50.0 mg/kg/injection, schedule: Q01DX005 (ip), vehicle: saline with Tween-80
[2] = dose: 100.0 mg/kg/injection, schedule: Q01DX005 (ip), vehicle: saline with Tween-80
[3] = dose: 200.0 mg/kg/injection, schedule: Q01DX005 (ip), vehicle: saline with Tween-80
[4] = dose: 60.0 mg/kg/injection, schedule: Q01DX005 (ip), vehicle: saline with Tween-80
[5] = dose: 1.56 mg/kg/injection, schedule: Q01DX009 (ip), vehicle: water
[6] = dose: 6.25 mg/kg/injection, schedule: Q01DX009 (ip), vehicle: water
[7] = dose: 12.5 mg/kg/injection, schedule: Q01DX009 (ip), vehicle: water
[8] = dose: 25.0 mg/kg/injection, schedule: Q01DX009 (ip), vehicle: water
[9] = dose: 50.0 mg/kg/injection, schedule: Q01DX009 (ip), vehicle: water
[10] = dose: 50.0 mg/kg/injection, schedule: Q01DX009 (ip), vehicle: saline with Tween-80
[11] = dose: 100.0 mg/kg/injection, schedule: Q01DX009 (ip), vehicle: saline with Tween-80
[12] = dose: 200.0 mg/kg/injection, schedule: Q01DX009 (ip), vehicle: saline with Tween-80

SMILES: CC1NC(C)c2c(ccc3ccccc23)O1 (stereo not given)
- T/C [1]: 100 % of control
- T/C [2]: 100 % of control
- T/C [3]: 97 % of control

SMILES: C/C=C/N=NNc1ccccc1OC
- T/C (dose: 100.0 mg/kg/injection, schedule: Q04DX003 (ip), vehicle: saline + Tween-80 + alcohol): 107 % of control

SMILES: CCCCCCCCSC(=O)n1cc(F)c(=O)[nH]c1=O
- T/C (dose: 15.0 mg/kg/injection, schedule: Q01DX005 (ip), vehicle: saline with Tween-80): 103 % of control
- T/C (dose: 30.0 mg/kg/injection, schedule: Q01DX005 (ip), vehicle: saline with Tween-80): 120 % of control
- T/C [4]: 120 % of control

SMILES: O=NNc1cnccn1
- T/C [5]: 100 % of control
- T/C (dose: 3.12 mg/kg/injection, schedule: Q01DX009 (ip), vehicle: water): 109 % of control and 100 % of control
- T/C [6]: 110 % of control and 112 % of control and 97 % of control
- T/C [7]: 116 % of control and 122 % of control
- T/C [8]: 150 % of control
- T/C (dose: 25.3 mg/kg/injection, schedule: Q01DX009 (ip), vehicle: other): 161 % of control
- T/C (dose: 25.3 mg/kg/injection, schedule: Q01DX009 (ip), vehicle: water): 170 % of control
- T/C (dose: 37.5 mg/kg/injection, schedule: Q01DX009 (ip), vehicle: water): 224 % of control and 245 % of control and 271 % of control
- T/C (dose: 38.0 mg/kg/injection, schedule: Q01DX009 (ip), vehicle: other): 225 % of control
- T/C [9]: 118 % of control [middle of 5 runs]
- T/C (dose: 57.0 mg/kg/injection, schedule: Q01DX009 (ip), vehicle: water): 112 % of control

SMILES: CC(=O)OC1CC2C(C)(C)C(=O)C3OC3C2(C)C2CCC3(C)C(c4ccoc4)C(=O)C4OC43C12C (stereo not given)
- T/C (dose: 0.38 mg/kg/injection, schedule: Q01DX005 (ip), vehicle: Klucel (hydroxypropylcellulose) (HPC)): 100 % of control
- T/C (dose: 0.75 mg/kg/injection, schedule: Q01DX005 (ip), vehicle: Klucel (hydroxypropylcellulose) (HPC)): 100 % of control
- T/C (dose: 1.5 mg/kg/injection, schedule: Q01DX005 (ip), vehicle: Klucel (hydroxypropylcellulose) (HPC)): 100 % of control
- T/C (dose: 3.0 mg/kg/injection, schedule: Q01DX005 (ip), vehicle: Klucel (hydroxypropylcellulose) (HPC)): 100 % of control
- T/C (dose: 6.0 mg/kg/injection, schedule: Q01DX005 (ip), vehicle: Klucel (hydroxypropylcellulose) (HPC)): 106 % of control

SMILES: Clc1ccc(N=NN2CN3CN(C2)CN(N=Nc2ccc(Cl)cc2)C3)cc1
- T/C (dose: 100.0 mg/kg/injection, schedule: Q04DX002 (ip), vehicle: Klucel (hydroxypropylcellulose) (HPC)): 94 % of control
- T/C (dose: 200.0 mg/kg/injection, schedule: Q04DX002 (ip), vehicle: Klucel (hydroxypropylcellulose) (HPC)): 99 % of control
- T/C (dose: 400.0 mg/kg/injection, schedule: Q04DX002 (ip), vehicle: Klucel (hydroxypropylcellulose) (HPC)): 91 % of control

SMILES: Cc1c(C)[n+](=O)c2ccc(/C=[N+](/[O-])CCO)cc2n1[O-]
- T/C (dose: 50.0 mg/kg/injection, schedule: Q01DX009 (ip), vehicle: Klucel (hydroxypropylcellulose) (HPC)): 99 % of control
- T/C (dose: 100.0 mg/kg/injection, schedule: Q01DX009 (ip), vehicle: Klucel (hydroxypropylcellulose) (HPC)): 99 % of control
- T/C (dose: 200.0 mg/kg/injection, schedule: Q01DX009 (ip), vehicle: Klucel (hydroxypropylcellulose) (HPC)): 107 % of control

SMILES: COc1cc(NC(=O)SC2=NCCS2)cc(OC)c1
- T/C [10]: 107 % of control
- T/C [11]: 110 % of control
- T/C [12]: 100 % of control

SMILES: CC(=O)Nc1c(Nc2ccc3c(=O)[nH]ccc3c2C)cc[nH]c1=O
- T/C [4]: 102 % of control
- T/C (dose: 120.0 mg/kg/injection, schedule: Q01DX005 (ip), vehicle: saline with Tween-80): 104 % of control
- T/C (dose: 240.0 mg/kg/injection, schedule: Q01DX005 (ip), vehicle: saline with Tween-80): 103 % of control

SMILES: COC(=O)c1c(C(N)=O)c(C)n(NC(=O)Nc2ccccc2)c1C
- T/C [1]: 96 % of control
- T/C [2]: 89 % of control
- T/C [3]: 94 % of control

SMILES: COC(=O)C(CNc1ccc(S(N)(=O)=O)cc1)=[N+]=[N-]
- T/C (dose: 6.25 mg/kg/injection, schedule: Q01DX009 (ip), vehicle: saline): 98 % of control
- T/C (dose: 12.5 mg/kg/injection, schedule: Q01DX009 (ip), vehicle: saline): 97 % of control
- T/C (dose: 25.0 mg/kg/injection, schedule: Q01DX009 (ip), vehicle: saline): 91 % of control
- T/C (dose: 100.0 mg/kg/injection, schedule: Q01DX009 (ip), vehicle: saline): 100 % of control
- T/C (dose: 200.0 mg/kg/injection, schedule: Q01DX009 (ip), vehicle: saline): 99 % of control

SMILES: COc1cc2c(C)nc3c4cc5c(cc4ccc3c2cc1OC)OCO5
- T/C [8]: 108 % of control
- T/C [9]: 95 % of control

SMILES: CCCCCCCCCCCCCCCC(=O)N(CCCN)C(C)(C)CCC(C)(C)N(CCCN)C(=O)CCCCCCCCCCCCCCC
- T/C [5]: 101 % of control
- T/C (dose: 3.13 mg/kg/injection, schedule: Q01DX009 (ip), vehicle: water): 107 % of control
- T/C [6]: 114 % of control
- T/C [7]: 113 % of control
- T/C [8]: 93 % of control

SMILES: C/C1=C\C(=O)OCC23CC(O)C4(C)OC4C2OC2CC(OC(=O)/C=C/C=C/C(C(C)O)OCC1O)C3(C)C21CO1 (stereo not given)
- T/C (dose: 1.25 mg/kg/injection, schedule: Q01DX005 (ip), vehicle: saline + alcohol): 120 % of control
- T/C (dose: 2.5 mg/kg/injection, schedule: Q01DX005 (ip), vehicle: saline + alcohol): 120 % of control
- T/C (dose: 5.0 mg/kg/injection, schedule: Q01DX005 (ip), vehicle: saline + alcohol): 155 % of control
- T/C (dose: 10.0 mg/kg/injection, schedule: Q01DX005 (ip), vehicle: saline + alcohol): 172 % of control

SMILES: Nc1nc(N)c2c(ccc3c2ccn3Cc2cccc([N+](=O)[O-])c2)n1
- T/C (dose: 1.56 mg/kg/injection, schedule: Q01DX005 (ip), vehicle: saline with Tween-80): 100 % of control and 119 % of control
- T/C (dose: 3.12 mg/kg/injection, schedule: Q01DX005 (ip), vehicle: saline with Tween-80): 110 % of control

SMILES: CCCCOC1=NC2C(=O)NCC2CO1 (stereo not given)
- T/C [1]: 97 % of control
- T/C [2]: 94 % of control
- T/C [3]: 97 % of control

SMILES: CCOC(=O)N1CCc2nc3ccc(Cl)cc3cc21
- T/C (dose: 25.0 mg/kg/injection, schedule: Q01DX009 (ip), vehicle: saline with Tween-80): 117 % of control
- T/C [10]: 98 % of control
- T/C [11]: 99 % of control
- T/C [12]: 108 % of control

SMILES: CCCCN(C(=O)C(C)C)c1nc(C)co1
- T/C [10]: 112 % of control
- T/C [11]: 118 % of control
- T/C [12]: 96 % of control

SMILES: CCCCCCCCN=Cc1c(O)c(O)c(C(C)C)c2cc(C)c(-c3c(C)cc4c(C(C)C)c(O)c(O)c(C=NCCCCCCCC)c4c3O)c(O)c12
- T/C (dose: 25.0 mg/kg/injection, schedule: Q01DX005 (ip), vehicle: Klucel (hydroxypropylcellulose) (HPC)): 95 % of control
- T/C (dose: 50.0 mg/kg/injection, schedule: Q01DX005 (ip), vehicle: Klucel (hydroxypropylcellulose) (HPC)): 98 % of control
- T/C (dose: 100.0 mg/kg/injection, schedule: Q01DX005 (ip), vehicle: Klucel (hydroxypropylcellulose) (HPC)): 98 % of control
- T/C (dose: 200.0 mg/kg/injection, schedule: Q01DX005 (ip), vehicle: Klucel (hydroxypropylcellulose) (HPC)): 93 % of control

SMILES: Cc1nnc(SCC2=C(C(=O)O)N3C(=O)C(NC(=O)Cn4cc(Cl)c(=O)c(Cl)c4)C3SC2)s1 (stereo not given)
- T/C [9]: 105 % of control
- T/C (dose: 100.0 mg/kg/injection, schedule: Q01DX009 (ip), vehicle: water): 101 % of control
- T/C (dose: 200.0 mg/kg/injection, schedule: Q01DX009 (ip), vehicle: water): 100 % of control

SMILES: CCOC(=O)c1cc(N)c(N2CCCC2)cc1Cl
- T/C (dose: 90.0 mg/kg/injection, schedule: Q04DX003 (ip), vehicle: saline with Tween-80): 100 % of control
- T/C (dose: 133.0 mg/kg/injection, schedule: Q04DX003 (ip), vehicle: saline with Tween-80): 100 % of control
- T/C (dose: 200.0 mg/kg/injection, schedule: Q04DX003 (ip), vehicle: saline with Tween-80): 90 % of control
- T/C (dose: 300.0 mg/kg/injection, schedule: Q04DX003 (ip), vehicle: saline with Tween-80): 95 % of control

SMILES: NCCC(=O)CN
- T/C (dose: 100.0 mg/kg/injection, schedule: Q04DX003 (ip), vehicle: saline): 104 % of control
- T/C (dose: 200.0 mg/kg/injection, schedule: Q04DX003 (ip), vehicle: saline): 109 % of control
- T/C (dose: 400.0 mg/kg/injection, schedule: Q04DX003 (ip), vehicle: saline): 104 % of control
